This note sets out measurements from ChEMBL document CHEMBL1153489, “Benzothiophene inhibitors of MK2. Part 1: structure-activity relationships, assessments of selectivity and cellular potency” (Bioorg Med Chem Lett, 2009).

The target in test [1] is T1, MAP kinase-activated protein kinase 2 (Homo sapiens, UniProt P49137). In words: Inhibition of MK2.
Test [2] concerns the target T1, MAP kinase-activated protein kinase 2. In words: Inhibition of MK2 in human U937 cells assessed as blockade of LPS-stimulated TNFalpha production. The format is cell-based, U-937.
In test [3] the target is MAP kinase p38 (Homo sapiens) (UniProt O15264+Q15759+Q16539+P53778). Put plainly: Inhibition of p38 phosphorylation in LPS-stimulated human U937 cells. It counts as cell-based. Particulars: U-937.
The target of test [4] is Mitogen-activated protein kinase 9 (Homo sapiens) (UniProt P45984). Put plainly: Inhibition of JNK2 phosphorylation in LPS-stimulated human U937 cells. The format is cell-based. Particulars: U-937.
Chain of Mitogen-activated protein kinase 9 (Homo sapiens) (P45984 whole entry, looked up): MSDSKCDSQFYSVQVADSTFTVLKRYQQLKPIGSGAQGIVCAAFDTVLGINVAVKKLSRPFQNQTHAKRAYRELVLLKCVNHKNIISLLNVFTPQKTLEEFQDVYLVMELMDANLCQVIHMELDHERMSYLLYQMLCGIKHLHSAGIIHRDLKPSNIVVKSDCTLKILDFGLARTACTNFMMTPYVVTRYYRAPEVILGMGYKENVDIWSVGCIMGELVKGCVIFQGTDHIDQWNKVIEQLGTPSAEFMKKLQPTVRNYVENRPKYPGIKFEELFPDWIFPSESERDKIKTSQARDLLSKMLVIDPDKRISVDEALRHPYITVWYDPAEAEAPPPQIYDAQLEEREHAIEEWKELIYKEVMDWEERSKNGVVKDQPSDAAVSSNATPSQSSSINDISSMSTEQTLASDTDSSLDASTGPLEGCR

pIC50: −log10 of the molar value. Activity calls are given as the source filed them. The rule behind the calls is not given here.

T1 sequence (P49137 whole entry): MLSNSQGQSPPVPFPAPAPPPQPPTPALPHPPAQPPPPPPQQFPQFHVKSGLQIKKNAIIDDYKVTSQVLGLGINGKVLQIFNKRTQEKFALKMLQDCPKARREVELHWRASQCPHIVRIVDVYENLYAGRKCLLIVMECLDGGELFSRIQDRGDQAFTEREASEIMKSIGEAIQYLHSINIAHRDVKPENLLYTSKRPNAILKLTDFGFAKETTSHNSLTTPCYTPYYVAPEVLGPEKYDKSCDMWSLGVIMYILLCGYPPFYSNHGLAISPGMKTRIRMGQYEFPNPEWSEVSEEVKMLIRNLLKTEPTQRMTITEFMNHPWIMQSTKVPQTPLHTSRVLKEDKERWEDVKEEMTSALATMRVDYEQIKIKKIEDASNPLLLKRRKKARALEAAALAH

Broadly, the pIC50 is the IC50 on a negative log10 scale, so that one unit is a factor of ten. For `COc1ccc2sc3c(c2c1)NC[C@@H](CO)NC3=O`, the pIC50 in test [1] was 7.85; in test [2], 6.40. In addition, the result in test [3] and in test [4] was inactive.

In the case of `CCNC[C@@H]1CNc2c(sc3ccc(OC)cc23)C(=O)N1`, the figures for the pIC50 in test [1] and in test [2] were 6.24 and 4.67, respectively.

As for `CC(C)COc1ccc2sc3c(c2c1)NC[C@@H](C)NC3=O`, the figures for the pIC50 in test [1] and in test [2] were 7.52 and 5.74, respectively.

Take `COC(=O)COc1ccc2sc3c(c2c1)NC[C@@H](C)NC3=O`: the figures for the pIC50 in test [1] and in test [2] were 5.46 and 4.11, respectively.

Regarding `COc1ccc2sc3c(c2c1)NC[C@@H](CN1CCCC1)NC3=O`, in test [1], the pIC50 is less than 4.70.

Turning to `COc1ccc2sc3c(c2c1)NCCNC3=O`, the pIC50 is 6.74 in test [1] and 5.85 in test [2].

Take `COCCOc1ccc2sc3c(c2c1)NC[C@@H](C)NC3=O`: the values for the pIC50 in test [1] and in test [2] were 6.57 and 5.51, respectively.

For the compound `COc1ccc2sc3c(c2c1)SCCNC3=O`, the results for the pIC50 in test [1] and in test [2] were 5.96 and 5.26, respectively.

For the compound `COc1cccc(COc2ccc3sc4c(c3c2)NC[C@@H](C)NC4=O)c1`, the figures for the pIC50 in test [1] and in test [2] were 6.96 and 5.34, respectively.

On to `CCC[C@@H]1CNc2c(sc3ccc(OC)cc23)C(=O)N1`, for which the pIC50 is 5.82 in test [1] and 5.26 in test [2].

For the compound `COc1ccc2sc3c(c2c1)NC[C@@H](CN1CCOCC1)NC3=O`, in test [1], the pIC50 is less than 4.70.

As for `C[C@@H]1CNc2c(sc3ccc(OCC4CC4)cc23)C(=O)N1`, the pIC50 in test [1] was 5.88; in test [2] it was 4.57.

Take `C[C@@H]1CNc2c(sc3ccc(O)cc23)C(=O)N1`: the pIC50 in test [1] is 6.72; in test [2], 5.46.

As to `CCCNC[C@@H]1CNc2c(sc3ccc(OC)cc23)C(=O)N1`, the negative logarithm of the IC50 (pIC50) is 6.35 in test [1] and 4.83 in test [2].

For `COc1ccc2sc3c(c2c1)NC[C@@H](CNCc1ccccc1)NC3=O`, the pIC50 was 6.24 in test [1] and 4.68 in test [2].

As for `COc1ccc2sc3c(c2c1)NC[C@@H](CN(C)Cc1ccccc1)NC3=O`, the pIC50 in test [1] was 5.72; in test [2], 4.62.

Regarding `COc1ccc2sc3c(c2c1)NC[C@@H](CN)NC3=O`, the pIC50 was 8.30 in test [1] and 5.59 in test [2].

With `COc1ccc2sc3c(c2c1)CCCNC3=O`, the results for the pIC50 in test [1] and in test [2] were 6.30 and 5.33, respectively.
